Results on 16 compounds are retold here after patent US12398141B2 (SHANGHAI SYNERGY PHARMACEUTICAL SCIENCES CO., LTD, priority 2019, dated 2025).

One test concerns TF-1 cell. The test can be described thus: TF-1 cell proliferation test. Format: cell-based. Conditions: Homo sapiens, 72 h. As to the method:
Inhibiting test of the compounds of the invention on proliferation of Blast T cell and TF-1 cell (American type culture collection) was carried out by the following method. The tested compounds […], and […] were dissolved in dimethyl sulfoxide from 0.0006 to 10 μM in quadruplicate dilutions. […] The luminescence value was read on Microplate Reader (Molecular Device). […] The IC50 values of the corresponding compounds were then obtained by fitting by using the XLFit fitting tool in excel.

The test system of a further test is Blast T cell. The test can be described thus: Cell proliferation test of IL-2 stimulated Blast T cell. Format: cell-based. Conditions: Homo sapiens; IL-2 stimulated Blast T cell proliferation, 72 hours. The procedure:
Inhibiting test of the compounds of the invention on proliferation of Blast T cell and TF-1 cell (American type culture collection) was carried out by the following method. The tested compounds […], and […] were dissolved in dimethyl sulfoxide from 0.0006 to 10 μM in quadruplicate dilutions. […] 10 μg/ml […] was added to stimulate and obtain cells with a density of 2×10^6/mL, which were incubated for 3 days. The cells were washed with phosphate buffer for three times and IL-2 (100 u/ml) was added to stimulate for 1 week. Cells were suspended using the culture medium and seeded at 5×10^4 cell/well density into 96-well plates, and incubated for 1 h with the prepared test compound or DMSO control at various concentrations from 0.0006 to 10 μM diluted by 4-fold volume. After incubation with 20 u/ml of IL-2 (50 μl/well without reference well) for 72 hours, Celltiter Glo® reagent (Promega, G7571) was added and mixed for 5 minutes, then incubated for 30 minutes at room temperature. The luminescence value was read on SpectraMax L (Molecular Device). […] The IC50 values of the corresponding compounds were then obtained by fitting by using the XLFit fitting tool in excel.

Another test deals with JAK2 (Homo sapiens (Human), UniProt O60674). The test can be described thus: JAK2 LANCE Ultra kinase assay. Format: biochemical. The note with it: 12 uM ATP. In general terms: TR-FRET usually uses a lanthanide donor and a delayed reading to cut background.
For a further test, the target named is JAK1 (Homo sapiens (Human), UniProt P23458). The test can be described thus: JAK1 LANCE Ultra kinase assay. In kind it is biochemical. Conditions: for IC50: 38 uM ATP; for JAK2/JAK1: ratio of IC50 JAK2 to IC50 JAK1. An outline of the steps:
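JAK1 preincubated with compound 10 min at room temperature, then ULight-JAK-1 peptide/ATP added for 90 min at room temperature; stopped with EDTA, Eu-W1024 anti-phosphotyrosine TR-FRET read after 60 min. Inhibition normalised to DMSO and blank wells; IC50 from curve fit.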

The target in another test is JAK3 (Homo sapiens (Human), UniProt P52333). The test can be described thus: JAK3 LANCE Ultra kinase assay. Format: biochemical. Conditions: 4 uM ATP.
The next test deals with male ICR mice. The test can be described thus: Carrageenan-induced paw swelling in mice. Format: in vivo. Conditions: 10 mg/kg intragastric. The procedure: The inhibiting effects of compounds H01, H07, H11, H12, H14, H15, H22, H25, H29, H30, H33, H39 and H44 on paw swelling in mice were determined after intragastric administration by using male ICR mice (ShanghaiSippr-BK laboratory animal Co. Ltd.), aged 8 weeks and weighing 22-24 g as test animals. The anti-inflammatory pharmacodynamics characteristic of the compounds of the invention was discussed.
A certain amount of compounds were taken and dissolved in 4% Tween 80/0.5% hydroxy propyl methyl cellulose solution. A volume of intragastric administration in mice was 10 ml/kg.
Mice were given 10 mg/kg compounds H01, H07, H11, H12, H14, H15, H22, H25, H29, H30, H33, H39, and H44 and the positive drug indomethacin (Diamond Reagent Co., Ltd., China) by intragastric administration at the dosages shown in the table below and 20 μL 1% (W/V) carrageenan was injected subcutaneously into the plantar 0.5 h later. A paw volume was measured with a paw swelling meter before and at different time points after modeling (0.5 h, 1 h and 2 h). According to the formula: paw swelling rate=(paw volume after administration−basic paw volume)/basic paw volume×100, the inhibiting effect of the compounds on paw volume was calculated. The basic paw volume was a paw volume before administration.
A general note: In the carrageenan paw model, swelling and tenderness develop within hours.

The test system of the next test is Sprague-Dawley (SD) mice. The test can be described thus: Concanavalin-induced paw swelling in mice. In kind it is in vivo. The note with it: 10 mg/kg intragastric. As to the method:
The inhibiting effects of compounds H13, H14, H09, H11 and compounds of Example 12 on paw swelling in […] were determined after intragastric administration by using Sprague-Dawley (SD) […] (ShanghaiSippr-BK laboratory animal Co. Ltd.), aged 6-7 weeks and weighing 160-180 g as test animals. The anti-inflammatory pharmacodynamics characteristic of the compounds of the invention was discussed.
A certain amount of compounds were taken and dissolved in 4% Tween 80/0.5% hydroxy propyl methyl cellulose solution.
Mice were given compounds H01, H07, H11, H12, H14, H15, H22, H25, H29, H30, H33, H39, and H44 and the positive drug indomethacin (Diamond Reagent Co., Ltd., China) by intragastric administration at the dosages shown in the table below and 0.1 ml 0.03% (W/V) concanavalin was injected subcutaneously into the plantar 0.5 h later. A paw volume was measured with a paw swelling meter before modeling and 1 h, 2 h, 4 h and 6 h after modeling. According to the formula: paw swelling rate=(paw volume after administration−basic paw volume)/basic paw volume×100, the inhibiting effect of the compounds on paw volume was calculated. The basic paw volume was a paw volume before administration.

Each structure is given as a SMILES string.

JAK3, sequence (P52333 whole entry): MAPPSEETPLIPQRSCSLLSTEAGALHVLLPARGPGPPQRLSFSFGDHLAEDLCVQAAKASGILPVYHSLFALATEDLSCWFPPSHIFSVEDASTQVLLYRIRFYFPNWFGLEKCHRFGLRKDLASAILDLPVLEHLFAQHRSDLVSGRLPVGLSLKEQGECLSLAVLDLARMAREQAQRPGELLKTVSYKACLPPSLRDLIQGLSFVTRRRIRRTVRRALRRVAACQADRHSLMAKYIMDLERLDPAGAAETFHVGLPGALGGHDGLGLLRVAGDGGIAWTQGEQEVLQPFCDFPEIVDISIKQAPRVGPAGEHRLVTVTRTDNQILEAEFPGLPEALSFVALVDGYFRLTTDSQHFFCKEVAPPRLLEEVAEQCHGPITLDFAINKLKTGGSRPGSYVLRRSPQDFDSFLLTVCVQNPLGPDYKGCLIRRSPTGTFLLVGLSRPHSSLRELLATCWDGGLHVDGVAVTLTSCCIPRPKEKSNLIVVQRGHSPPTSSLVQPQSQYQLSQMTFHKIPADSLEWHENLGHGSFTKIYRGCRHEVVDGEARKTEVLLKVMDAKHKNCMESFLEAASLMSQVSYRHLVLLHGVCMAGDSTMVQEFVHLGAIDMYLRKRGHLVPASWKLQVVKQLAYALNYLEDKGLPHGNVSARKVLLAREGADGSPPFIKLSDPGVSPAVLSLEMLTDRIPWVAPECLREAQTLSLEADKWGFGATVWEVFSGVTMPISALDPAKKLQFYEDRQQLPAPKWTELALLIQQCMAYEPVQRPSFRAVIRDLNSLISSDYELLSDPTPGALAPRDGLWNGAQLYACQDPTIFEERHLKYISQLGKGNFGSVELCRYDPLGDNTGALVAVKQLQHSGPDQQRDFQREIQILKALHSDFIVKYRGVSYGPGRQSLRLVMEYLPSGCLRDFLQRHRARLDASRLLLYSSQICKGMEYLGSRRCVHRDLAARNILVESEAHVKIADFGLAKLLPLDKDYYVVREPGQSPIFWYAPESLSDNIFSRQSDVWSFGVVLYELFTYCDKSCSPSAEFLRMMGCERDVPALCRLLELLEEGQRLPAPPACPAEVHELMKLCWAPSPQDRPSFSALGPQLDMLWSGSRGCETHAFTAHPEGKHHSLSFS
JAK2, sequence (O60674 whole entry): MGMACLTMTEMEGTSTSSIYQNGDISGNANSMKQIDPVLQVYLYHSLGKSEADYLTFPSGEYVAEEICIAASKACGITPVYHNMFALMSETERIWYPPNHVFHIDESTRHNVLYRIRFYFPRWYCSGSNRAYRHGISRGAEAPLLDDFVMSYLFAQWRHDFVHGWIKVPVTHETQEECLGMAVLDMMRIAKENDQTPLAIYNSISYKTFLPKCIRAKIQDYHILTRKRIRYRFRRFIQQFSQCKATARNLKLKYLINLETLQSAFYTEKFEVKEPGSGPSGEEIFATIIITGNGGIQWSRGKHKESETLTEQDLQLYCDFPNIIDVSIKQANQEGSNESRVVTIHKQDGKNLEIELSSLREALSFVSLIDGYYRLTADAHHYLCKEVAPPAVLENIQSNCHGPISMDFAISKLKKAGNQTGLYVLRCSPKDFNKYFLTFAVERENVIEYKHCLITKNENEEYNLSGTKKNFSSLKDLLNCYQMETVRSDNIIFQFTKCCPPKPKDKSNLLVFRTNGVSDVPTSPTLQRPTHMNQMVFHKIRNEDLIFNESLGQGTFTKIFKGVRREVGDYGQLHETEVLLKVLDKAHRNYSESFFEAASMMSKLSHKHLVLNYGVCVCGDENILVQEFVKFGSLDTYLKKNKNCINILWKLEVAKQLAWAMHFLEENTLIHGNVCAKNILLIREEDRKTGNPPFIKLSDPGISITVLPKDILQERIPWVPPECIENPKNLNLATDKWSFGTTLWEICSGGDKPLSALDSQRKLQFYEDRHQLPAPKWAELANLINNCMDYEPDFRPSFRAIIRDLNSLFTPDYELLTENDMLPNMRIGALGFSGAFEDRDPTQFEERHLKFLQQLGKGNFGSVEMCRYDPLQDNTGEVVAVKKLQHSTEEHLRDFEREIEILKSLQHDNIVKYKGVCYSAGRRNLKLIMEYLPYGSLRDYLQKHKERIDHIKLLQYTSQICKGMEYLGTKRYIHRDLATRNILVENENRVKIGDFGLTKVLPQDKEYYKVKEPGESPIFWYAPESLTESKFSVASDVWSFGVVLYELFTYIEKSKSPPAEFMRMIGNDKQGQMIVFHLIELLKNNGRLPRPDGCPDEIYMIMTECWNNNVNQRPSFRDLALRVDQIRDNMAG
JAK1, sequence (P23458 whole entry): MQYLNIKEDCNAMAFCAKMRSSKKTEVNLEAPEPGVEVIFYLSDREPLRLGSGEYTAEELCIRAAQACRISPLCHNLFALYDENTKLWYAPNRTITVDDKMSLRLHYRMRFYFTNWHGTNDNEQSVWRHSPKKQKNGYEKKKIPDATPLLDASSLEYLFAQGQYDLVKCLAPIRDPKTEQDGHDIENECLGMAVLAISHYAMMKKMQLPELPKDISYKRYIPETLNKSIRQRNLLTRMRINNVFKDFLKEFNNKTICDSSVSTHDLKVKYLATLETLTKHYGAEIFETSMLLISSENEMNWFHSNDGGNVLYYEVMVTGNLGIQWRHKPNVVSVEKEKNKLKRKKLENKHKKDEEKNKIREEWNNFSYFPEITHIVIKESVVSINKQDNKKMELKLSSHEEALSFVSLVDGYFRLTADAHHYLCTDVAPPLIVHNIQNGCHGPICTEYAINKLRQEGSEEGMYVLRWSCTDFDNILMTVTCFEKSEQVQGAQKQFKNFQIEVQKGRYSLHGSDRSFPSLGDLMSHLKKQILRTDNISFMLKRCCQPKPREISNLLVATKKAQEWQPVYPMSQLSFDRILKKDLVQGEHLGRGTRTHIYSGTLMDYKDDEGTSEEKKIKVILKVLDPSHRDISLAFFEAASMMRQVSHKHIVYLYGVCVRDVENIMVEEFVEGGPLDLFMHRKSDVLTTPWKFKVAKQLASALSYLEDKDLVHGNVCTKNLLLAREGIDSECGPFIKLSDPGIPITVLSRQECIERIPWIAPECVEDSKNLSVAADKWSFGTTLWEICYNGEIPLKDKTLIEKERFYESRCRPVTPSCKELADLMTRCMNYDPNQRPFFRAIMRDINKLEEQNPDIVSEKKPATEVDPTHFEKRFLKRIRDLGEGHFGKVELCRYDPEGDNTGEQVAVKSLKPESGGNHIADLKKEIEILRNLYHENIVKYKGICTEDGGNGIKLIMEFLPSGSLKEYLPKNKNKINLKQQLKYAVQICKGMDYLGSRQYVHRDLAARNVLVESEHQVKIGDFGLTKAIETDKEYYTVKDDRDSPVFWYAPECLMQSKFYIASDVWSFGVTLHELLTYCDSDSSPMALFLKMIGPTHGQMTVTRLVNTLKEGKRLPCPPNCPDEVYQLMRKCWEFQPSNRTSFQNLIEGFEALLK

For orientation: IC50 means the midpoint of a concentration-inhibition curve. A high value points to weaker potency in that assay. Take `CC[C@@H]1CN(C(=O)NCC(F)(F)F)CC1N(C)c1c(C#N)cnc2[nH]ccc12` (stereo partly drawn) [Compound H02]: the half-inhibitory concentration (IC50) is 1.34 µM in the test on TF-1 cell and 0.48 µM in the test with Blast T cell.
For `N#Cc1cnc2[nH]ccc2c1N[C@H]1C[C@@H](NS(=O)(=O)c2cccc3nonc23)C1` [Compound H19, (cis)-4-{[3-(benzo[c][1,2,5]oxadiazole-4-sulfonamido)-cyclobutyl-1-yl]-amino}-1H-pyrrolo[2,3-b]pyridin-5-carbonitrile] the same measures were 2.3 µM and 0.024 µM.
Take `CC[C@@H]1CC(NC(=O)Nc2nc(OC)ns2)C[C@@H]1Nc1c(C#N)cnc2[nH]ccc12` (stereo partly drawn) [Compound H61, 1-((3S,4R)-3-((5-cyano-1H-pyrrolo[2,3-b]pyridin-4-yl)amino)-4-ethylcyclopentyl)-3-(3-methoxy-1,2,4-thiadiazole-5-yl)urea]: the results for the IC50 against JAK2, at JAK1 and against JAK3 were 126 nM, 8.23 nM and 589 nM, respectively. For the same compound, on JAK1, the JAK2/JAK1 is recorded as 15.31.
In the case of `CN1CCN(S(=O)(=O)C[C@H]2CC[C@H](N(C)c3c(C#N)cnc4[nH]ccc34)CC2)CC1` [Compound H63, Trans-4-(methyl((1r,4r)-4-(((4-methylpiperazin-1-yl)sulfonyl)methyl)cyclohexyl)amino)-1H-pyrrolo[2,3-b]pyridin-5-carbonitrile], the values for the IC50 on JAK2, against JAK1 and on JAK3 were 7.3 nM, 1.42 nM and 64 nM, respectively. Moreover, the JAK2/JAK1 at JAK1 is 5.14.
For `CNCC1CCN(S(=O)(=O)C[C@H]2CC[C@H](N(C)c3c(C#N)cnc4[nH]ccc34)CC2)C1` (stereo partly drawn) [Compound H67, 4-(methyl-(trans-4-(((3-((methylamino)methyl)pyrrolidin-1-yl)sulfonyl)methyl)cyclohexyl)amino)-1H-pyrrolo[2,3-b]pyridin-5-carbonitrile] the same measures were 9.5 nM, 0.67 nM, 76 nM and 14.18.
For `COCC1CCN(S(=O)(=O)C[C@H]2CC[C@H](N(C)c3c(C#N)cnc4[nH]ccc34)CC2)C1` (stereo partly drawn) [Compound H68, 4-((trans-4-(((3-(methoxymethyl)pyrrolidin-1-yl)sulfonyl)methyl)cyclohexyl)(methyl)amino)-1H-pyrrolo[2,3-b]pyridin-5-carbonitrile] the same measures were 122 nM, 6.87 nM, 386 nM and 17.76.
`CN(c1c(C#N)cnc2[nH]ccc12)[C@H]1CC[C@H](CS(=O)(=O)N2CCC(CO)C2)CC1` (stereo partly drawn) [Compound H69, 4-((trans-4-(((3-(hydroxymethyl)pyrrolidin-1-yl)sulfonyl)methyl)cyclohexyl)(methyl)amino)-1H-pyrrolo[2,3-b]pyridin-5-carbonitrile]: the figures for the IC50 against JAK2, against JAK1 and on JAK3 were 7.3 nM, 0.81 nM and 90 nM, respectively. The JAK2/JAK1 at JAK1 is reported as 9.01.
For `CN(c1c(C#N)cnc2[nH]ccc12)[C@@H]1CC[C@H](CS(=O)(=O)N2CCC(CO)C2)C1` (stereo partly drawn) [Compound H71] the same measures were 9.8 nM, 1.13 nM, 70 nM and 8.67.
On to `N#Cc1cnc2[nH]ccc2c1N[C@H]1CN(C(=O)NCC(F)(F)F)CC12CC2` [Compound H72, (R)-7-((5-cyano-1H-pyrrolo[2,3-b]pyridin-4-yl)amino)-N-(2,2,2-trifluoroethyl)-5-azaspiro[2.4]heptane-5-carboxamide], for which the 50% inhibitory concentration (IC50) amounted to 29 nM against JAK2, 10.3 nM on JAK1 and 75 nM on JAK3. Further, the JAK2/JAK1 at JAK1 turned out to be 2.82.
In the same order, the values of `CCC1CN(C(=O)CC#N)CC1Nc1c(C#N)cnc2[nH]ccc12` (stereo not drawn) [Compound H78, 4-((4-ethyl-1-(2-cyanoacetyl)pyrrolidin-3-yl)amino)-1H-pyrrolo[2,3-b]pyridin-5-carbonitrile] are 16 nM, 6 nM, 42 nM and 2.67.
For `CC[C@@H]1CN(C(=O)Nc2nc(OC)ns2)C[C@@H]1Nc1c(C#N)cnc2[nH]ccc12` [Compound H80, 4-(((cis)-4-ethyl-1-(3-methoxy-1,2,4-thiadiazole-5-aminocarbonyl)pyrrolidin-3-yl)amino)-1H-pyrrolo[2,3-b]pyridin-5-carbonitrile] the same measures were 18.6 nM, 2.9 nM, 152 nM and 6.41.
For `CCC1CN(C(=O)NCC2CC2)CC1Nc1c(C#N)cnc2[nH]ccc12` (stereo not drawn) [Compound H82, 3-((5-cyano-1H-pyrrolo[2,3-b]pyridin-4-yl)amino)-4-ethyl-N-(cyclopropylmethyl)pyrrolidin-1-carboxamide] the same measures were 69 nM, 8.9 nM, 172 nM and 7.75.
As to `CCC1CN(C(=O)NCC(F)F)CC1Nc1c(C#N)cnc2[nH]ccc12` (stereo not drawn) [Compound H87, 3-((5-cyano-1H-pyrrolo[2,3-b]pyridin-4-yl)amino)-N-(2,2-difluoroethyl)-4-ethylpyrrolidin-1-carboxamide], the half-inhibitory concentration (IC50) against JAK2 was 45 nM; against JAK1, 5.1 nM; against JAK3, 73 nM. In addition, at JAK1, the JAK2/JAK1 is on record as 8.82.
In the same order, the values of `N#Cc1cn2c(n1)CC(Nc1c(C#N)cnc3[nH]ccc13)CC2` (stereo not drawn) [Compound H90, 7-((5-cyano-1H-pyrrolo[2,3-b]pyridin-4-yl)amino)-5,6,7,8-tetrahydroimidazo[1,2-a]pyridin-2-carbonitrile] are 5.71 nM, 0.76 nM, 68 nM and 7.51.
For `CC[C@@H]1CN(C(=O)NCC#N)C[C@@H]1Nc1c(C(F)(F)F)cnc2[nH]ccc12` [Compound H93, (cis)-3-ethyl-N-(cyanmethyl)-4-((5-(trifluoromethyl)-1H-pyrrolo[2,3-b]pyridin-4-yl)amino)pyrrolidin-1-carboxamide] the same measures were 7.1 nM, 0.64 nM, 79 nM and 11.09.
Consider `COc1ccc2c(c1)c(CC(=O)O)c(C)n2C(=O)c1ccc(Cl)cc1` [Indomethacin, reference compound], for which the “Paw swelling_0.5 h (%)” value in the test on male ICR mice (0.5 h) came to 32.91 ± 3.22%. Also, the “Paw swelling rate_1 h (%)” value in the test with male ICR mice (1 h) worked out at 42.21 ± 4.64%; in the test with Sprague-Dawley (SD) mice (1 h), 34.00 ± 2.30%. In addition, the “Paw swelling rate_2 h (%)” value with male ICR mice (2 h) came to 55.10 ± 2.21%; in the test with Sprague-Dawley (SD) mice (2 h), 44.80 ± 3.00%. In addition, the “Paw swelling rate_4 h (%)” value in the test with Sprague-Dawley (SD) mice (4 h) stood at 42.70 ± 2.00%. For the same compound, the “Paw swelling rate_6 h (%)” value in the test on Sprague-Dawley (SD) mice (6 h) was determined as 36.20 ± 2.00%.
